Molecular target: T1, fibrin gels (Homo sapiens, UniProt P02671+P02675+P02679)
T1 sequence (P02671 20-644 isoform P02671-2 limits assumed): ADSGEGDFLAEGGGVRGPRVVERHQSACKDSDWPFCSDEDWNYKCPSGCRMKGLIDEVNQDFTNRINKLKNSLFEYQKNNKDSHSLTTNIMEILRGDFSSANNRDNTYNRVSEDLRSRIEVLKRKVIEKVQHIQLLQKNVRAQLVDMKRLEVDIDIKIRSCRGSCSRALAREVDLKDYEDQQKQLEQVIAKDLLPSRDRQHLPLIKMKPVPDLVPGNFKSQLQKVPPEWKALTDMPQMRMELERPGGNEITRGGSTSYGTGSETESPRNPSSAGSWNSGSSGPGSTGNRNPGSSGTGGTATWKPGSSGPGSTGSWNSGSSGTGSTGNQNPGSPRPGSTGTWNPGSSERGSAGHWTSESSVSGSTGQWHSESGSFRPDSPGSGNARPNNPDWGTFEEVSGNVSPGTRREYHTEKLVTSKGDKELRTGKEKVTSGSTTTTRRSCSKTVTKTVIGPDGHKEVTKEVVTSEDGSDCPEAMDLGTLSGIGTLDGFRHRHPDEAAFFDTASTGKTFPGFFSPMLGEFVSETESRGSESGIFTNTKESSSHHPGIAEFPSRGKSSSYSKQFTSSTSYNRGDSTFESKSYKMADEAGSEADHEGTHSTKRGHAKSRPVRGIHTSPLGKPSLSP
T1 sequence (P02675 45-491 limits assumed): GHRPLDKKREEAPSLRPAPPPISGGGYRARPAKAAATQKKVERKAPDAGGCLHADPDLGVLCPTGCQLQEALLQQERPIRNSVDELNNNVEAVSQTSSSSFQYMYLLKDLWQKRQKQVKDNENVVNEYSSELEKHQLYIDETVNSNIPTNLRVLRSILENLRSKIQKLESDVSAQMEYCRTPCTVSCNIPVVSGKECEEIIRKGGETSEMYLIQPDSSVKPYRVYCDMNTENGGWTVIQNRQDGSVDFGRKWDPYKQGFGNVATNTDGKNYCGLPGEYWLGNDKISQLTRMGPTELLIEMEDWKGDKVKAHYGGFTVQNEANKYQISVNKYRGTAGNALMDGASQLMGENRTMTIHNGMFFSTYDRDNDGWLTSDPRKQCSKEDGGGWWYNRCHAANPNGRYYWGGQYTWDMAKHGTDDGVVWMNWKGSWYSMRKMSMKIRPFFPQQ
T1 sequence (P02679 27-437 isoform P02679-2 limits assumed): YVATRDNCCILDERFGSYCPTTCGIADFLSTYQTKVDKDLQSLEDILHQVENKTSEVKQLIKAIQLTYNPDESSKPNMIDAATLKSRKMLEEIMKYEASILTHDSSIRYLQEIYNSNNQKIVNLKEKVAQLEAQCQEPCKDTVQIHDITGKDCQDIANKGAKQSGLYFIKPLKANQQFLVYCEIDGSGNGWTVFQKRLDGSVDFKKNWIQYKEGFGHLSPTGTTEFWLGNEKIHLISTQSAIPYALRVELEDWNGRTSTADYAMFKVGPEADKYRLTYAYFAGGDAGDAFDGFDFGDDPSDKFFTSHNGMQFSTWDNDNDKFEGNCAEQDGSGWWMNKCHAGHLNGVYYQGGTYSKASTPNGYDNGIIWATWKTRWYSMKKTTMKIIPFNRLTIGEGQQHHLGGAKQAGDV
Assay: Fibrin gel degradation with plasminogen and tissue plasminogen activator, thickness by OCT
Conditions: 1.6 U/mL plasminogen and 17,000 U/mL tPA in PBS, 37° C., gels with 0.12% dye, n=3
Description: Fibrin gels were cast as described in the Electron Microscopy section above and hydrated in PBS. A punch was used to generate 5.0 mm×1.5 mm gels. The measured thickness of all the gels was 309±69 μm.
The fibrin gels were then submerged in a PBS solution with 1.6 U/mL plasminogen (Sigma-Aldrich; St Louis, MO) and 17,000 U/mL tissue plasminogen activator (Sigma-Aldrich) in a glass-bottom petri dish (Mattek) and incubated at 37° C. to initiate degradation as described elsewhere (see, e.g., Gandhi et al., 2018 Acta Biomater., 67:134-46). Fibrin gel thickness was monitored over time by imaging with an Envisu R2110 (Leica; Wetzlar, Germany) optical coherence tomograph (OCT) and quantified using the caliper tool within the accompanying InVivoVue software (Leica). Gel thickness was continually measured every 10 minutes until no physical evidence of the insoluble gel remained. The thickness of a gel was measured at 3 different locations (left, middle, right) on each cross-section. The measure at each location was normalized to its initial value and then averaged.
Fibrin gels produced using PBS, TB, or EB with a geometry of 1.5 mm wide×5.0 mm long×0.2 mm thick were generated. Gels were hydrated in PBS prior to incubation in a solution of tissue plasminogen activator (tPA) and plasminogen (P) at 37° C. […]

`Cc1cc(-c2ccc(/N=N/c3ccc4c(S(=O)(=O)O)cc(S(=O)(=O)O)c(N)c4c3O)c(C)c2)ccc1/N=N/c1ccc2c(S(=O)(=O)O)cc(S(=O)(=O)O)c(N)c2c1O` [EB, Evans Blue] gave a degradation time of 78 ± 37 min.
Work on `Cc1cc(-c2ccc(/N=N/c3c(S(=O)(=O)O)cc4cc(S(=O)(=O)O)cc(N)c4c3O)c(C)c2)ccc1/N=N/c1c(S(=O)(=O)O)cc2cc(S(=O)(=O)O)cc(N)c2c1O` [TB, Trypan Blue] yielded a degradation time of 33 ± 18 min.
